Results: US9730679B1, “Device for sterile uterine sampling and drug delivery” (University of South Florida, priority 2012, dated 2017)
Converted amounts (≈) assume the structure as drawn.

Key:
[1] = test system: Escherichia coli (ATCC 25922); assay: Minimum inhibitory concentration, visual turbidimetric method with OD600 of MIC tubes; type: cell-based; details: ATCC25922, 4 h, E. coli, four hours incubation at 37° C., read-out: minimum inhibitory doxycycline concentration, MIC
Method: To determine the antibacterial activity of the doxycycline-loaded chitosan nanoparticles, minimum inhibitory concentrations (MICs) and minimum bactericidal concentrations (MBCs) were evaluated. The procedures for both assays were adopted from Lee et al. (Blanchet […]. Forward Selection of Explanatory Variables. Ecology. 2008; 89:2623-2632). MIC is the lowest concentration of DCNPs that inhibits bacterial growth. For the analyses, a visual turbidimetric method was used. Freshly prepared nanoparticles, blank and drug-loaded, were UV-sterilized for ten minutes. […] A 500 μL aliquot of this solution with sterilized particles was added to a tube containing Luria-Bertani (LB) broth for a total volume of 2 mL. A serial dilution, with a dilution factor of 0.3, was performed for the remaining six tubes. A parallel series of experiments was also run using unencapsulated doxycycline. Under sterile conditions, the tubes containing particles were inoculated with 1.0×10^5 colony-forming units (CFUs)/mL of Escherichia coli cells in LB broth, then incubated at 37° C. under agitation for four hours. Following the incubation, the tubes were assessed visually for the appearance of turbidity (i.e., bacterial growth). […] All MIC tubes were analyzed to assess the amount of bacteria present by measuring optical density of the suspension at 600 nm (OD600) and then calculating the number of bacterial cells present.

[2] = test system: normal human ovarian surface epithelial (OSE) cells; type: cell-based; details: 5 days
Method: Cytotoxicity of the DCNPs was determined by treating normal human ovarian surface epithelial (OSE) cells with different concentrations of doxycycline-loaded nanoparticles, then monitoring cell viability over the next five days. The OSE cells were cultured for 4 to 7 days in flasks containing medium199/MCDB105 media supplemented with 10% fetal bovine serum. The cells were removed from the flasks and counted, and then 100 μL of medium containing cells was added to the wells of a 96-well plate to give final cell concentrations of 5×10^2, 1.0×10^3, or 2.0×10^3 cells/mL. After 24 hours incubation at 37° C., the cells were treated with blank nanoparticles, DCNP4 (1 and 2 μg/mL), DCNP6 (1 and 2 μg/mL), or unencapsulated doxycycline (1 and 2 μg/mL). The plate was then incubated at 37° C. Bright microscopy was used to examine the cell morphology after treatment just before the assessing for cytotoxicity. Cytotoxicity was assessed on days 1, 3, and 5 by WST-1 assay. WST-1 assay reagent (10 μL) was added to each well, followed by incubation for another 4 hours at 37° C. and then spectrophotometric assessment of cell viability. […] This dye was quantified using a Biotex Synergy multiplate reader to measure absorbance at 450 nm (reference wavelength was 630 nm). All treatments were assayed in triplicate (n=3) and calculated according to equation 5: […]

## C[C@H]1c2cccc(O)c2C(=O)C2=C(O)[C@]3(O)C(=O)C(C(N)=O)=C(O)[C@@H](N(C)C)[C@@H]3[C@@H](O)[C@@H]21 [Doxy, Doxycycline]
[1]
  MIC: 13 µg/mL (≈ 29.3 µM)
[2]
  decrease in cell viability: 61%
